Reference: patent US20250129095A1, “ANNULATED 2-AMINO-3-CYANO THIOPHENES AND DERIVATIVES FOR THE TREATMENT OF CANCER” (Boehringer Ingelheim Int'l GmbH Corp., priority 2021, published 2025)

Columns and labels:
Format in all cases: cell-based
KRAS G12D Ba/F3 = KRAS G12D Ba/F3 (Homo sapiens, UniProt P01116, G12D, cells depend on it); test: Ba/F3 proliferation assay, KRAS G12D; details: 72 h, AlamarBlue, read-out: KRAS G12D Ba/F3 IC50
Protocol: Plasmids containing KRASG12 mutants(i.e. G12D, G12C, G12V) are obtained from GeneScript. To generate KRASG12-dependent Ba/F3 models, Ba/F3 cells are transduced with retroviruses containing vectors that harbor KRASG12 isoforms. Platinum-E cells (Cell Biolabs) are used for retrovirus packaging. Retrovirus is added to Ba/F3 cells. To ensure infection, 4 μg/mL polybrene is added and cells are spinfected. […] Cells with an infection efficiency of 10% to 20% are further cultivated and puromycin selection with 1 μg/mL is initiated. As a control, parental Ba/F3 cells are used to show selection status. Selection is considered successful when parental Ba/F3 cells cultures died. To evaluate the transforming potential of KRASG12 mutations, the growth medium is no longer supplemented with IL-3. Ba/F3 cells harboring the empty vector are used as a control. Approximately ten days before conducting the experiments, puromycin is left out.
Compounds are added using an Access Labcyte Workstation with a Labcyte Echo 550 or 555 accoustic dispenser. All treatments are performed in technical duplicates. […] AlamarBlue™ (ThermoFisher), a viability stain, is added and fluorescence measured in the PerkinElmer Envision HTS Multilabel Reader. The raw data are imported into and analyzed with the Boehringer Ingelheim proprietary software MegaLab (curve fitting based on the program PRISM, GraphPad Inc.).

NCI-H2122 cells = test: NCI-H2122 CTG proliferation assay (120 h) (NSCLC, G12C); details: Homo sapiens
Protocol: The CTG assay is designed to measure quantitatively the proliferation of NCI-H2122 cells (ATCC CRL-5985), using the CellTiter Glow Assay Kit (Promega G7571). Cells are grown in RPMI medium (ATCC) supplemented with Fetal Calf Serum (Life Technologies, Gibco BRL, Cat. No. 10270-106). On “day 0” 200 NCI-H2122 cells are seeded in 60 μL RPMI ATCC+10% FCS+Penstrep in a black 384-well plate, flat and clear bottom (Greiner, PNr. 781091). Cells are then incubated in the plates at 37° C. in a CO2 incubator overnight. On day 1, compounds (10 mM stock in DMSO) are added with the ECHO acoustic liquid handler system (Beckman Coulter), including DMSO controls. Plates are incubated for 120 h, and cell viability is measured using CellTiter-Glo luminescent cell viability reagent (Promega product code G7570). Viability (stated as percent of control) is defined as relative luminescence units RLU of each well divided by the RLU of cells in DMSO controls. […] values are determined from viability measurements by non-linear regression using a four parameter model. • AsPC-1 CTG proliieradon assay (120 h) (pancreatic cancer, G12D)

AsPC-1 cells = test: AsPC-1 CTG proliferation assay (120 h) (pancreatic cancer, G12D); details: Homo sapiens, ASPC1
Protocol: The CTG assay is designed to measure quantitatively the proliferation of AsPC-1 cells (ATCC CRL-5985), using the CellTiter Glow Assay Kit (Promega G7571). Cells are grown in RPMI medium (ATCC) supplemented with Fetal Calf Serum (Life Technologies, Gibco BRL, Cat. No. 10270-106). On “day 0” 2000 AsPC-1 cells are seeded in 60 μL RPMI ATCC+10% FCS+ Penstrep in a 384-well plate, flat and clear bottom (Greiner, PNr. 781091). Cells are then incubated in the plates at 37° C. in a CO2 incubator overnight. On day 1, compounds (10 mM stock in DMSO) are added with the ECHO acoustic liquid handler system (Beckman Coulter), including DMSO controls. Plates are incubated for 120 h, and cell viability is measured using CellTiter-Glo luminescent cell viability reagent (Promega product code G7570). Viability (stated as percent of control) is defined as relative luminescence units RLU of each well divided by the RLU of cells in DMSO controls.

SK-CO-1 cells = test: SK-CO-1 CTG proliferation assay (120 h) (CRC, G12V); details: Homo sapiens
Protocol: SK-CO-1 cells (ATCC HTB-39) are dispensed into 384-well plates, flat and clear bottom (Greiner, PNr. 781091) at a density of 500 cells per well in 60 μL EMEM (Sigma M5650)+10% Fetal Calf Serum (HyClone, PNr.: SH30084.03) and incubated at 37° C. in a CO2 incubator overnight. The next day, compounds (10 mM stock in DMSO) are added with the ECHO acoustic liquid handler system (Beckman Coulter), including DMSO controls. Plates are incubated for 120 h, and cell viability is measured using CellTiter-Glo luminescent cell viability reagent (Promega product code G7570). Viability (stated as percent of control) is defined as relative luminescence units RLU of each well divided by the RLU of cells in DMSO controls.

KRAS G12D Ba/F3, sequence (P01116 whole entry G12D, canonical isoform): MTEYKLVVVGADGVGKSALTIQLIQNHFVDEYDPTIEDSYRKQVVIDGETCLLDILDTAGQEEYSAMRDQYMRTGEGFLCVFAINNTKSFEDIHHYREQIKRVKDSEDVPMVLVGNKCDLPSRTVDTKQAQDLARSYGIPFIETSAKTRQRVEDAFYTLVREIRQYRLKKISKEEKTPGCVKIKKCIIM

Structure (SMILES)	GI50 (KRAS G12D Ba/F3) [nM]	IC50 (NCI-H2122 cells) [nM]	IC50 (AsPC-1 cells) [nM]	IC50 (SK-CO-1 cells) [nM]
C[C@H](Oc1cc(Oc2nccs2)nc(-c2noc3c2CCC[C@@]32CCCc3sc(N)c(C#N)c32)n1)[C@@H]1CCCN1C [II-2]	20	77	1840	26
C[C@H](Oc1cc(Oc2cnccn2)nc(-c2noc3c2CCC[C@@]32CCCc3sc(N)c(C#N)c32)n1)[C@@H]1CCCN1C [II-7]	10	997	3000	21
C[C@H](Oc1cc(N[C@H]2CCOC2)nc(-c2onc3c2CCC[C@@]32CCCc3sc(N)c(C#N)c32)n1)[C@@H]1CCCN1C [Example I-4]	41	2390	9470	762
C[C@H](Oc1cc(Oc2cccnc2)nc(-c2onc3c2CCC[C@@]32CCCc3sc(N)c(C#N)c32)n1)[C@@H]1CCCN1C [Example I-2]	6	740	1310	23
COCCOc1cc(O[C@@H](C)[C@@H]2CCCN2C)nc(-c2noc3c2CCC[C@@]32CCCc3sc(N)c(C#N)c32)n1 [II-5]	38	861	2550	23
C[C@H](Oc1cc(O[C@H]2CCOC2)nc(-c2noc3c2CCC[C@@]32CCCc3sc(N)c(C#N)c32)n1)[C@@H]1CCCN1C [II-4]	31	817	2750	28
COC[C@H](C)Nc1cc(O[C@@H](C)[C@@H]2CCCN2C)nc(-c2onc3c2CCC[C@@]32CCCc3sc(N)c(C#N)c32)n1 [Example I-5]	122	–	–	–
C[C@H](Oc1cc(Sc2ncccn2)nc(-c2onc3c2CCC[C@@]32CCCc3sc(N)c(C#N)c32)n1)[C@@H]1CCCN1C [Example I-7]	97	3610	10300	796
C[C@H](Oc1cc(Oc2ccon2)nc(-c2noc3c2CCC[C@@]32CCCc3sc(N)c(C#N)c32)n1)[C@@H]1CCCN1C [II-3]	27	275	1980	84
C[C@H](Oc1cc(Oc2cncnc2)nc(-c2noc3c2CCC[C@@]32CCCc3sc(N)c(C#N)c32)n1)[C@@H]1CCCN1C [II-1]	6	715	699	18
C[C@H](Oc1cc(Nc2nccs2)nc(-c2noc3c2CCC[C@@]32CCCc3sc(N)c(C#N)c32)n1)[C@@H]1CCCN1C [II-12]	65	1740	2920	308
C[C@H](Oc1cc(Nc2ncco2)nc(-c2noc3c2CCC[C@@]32CCCc3sc(N)c(C#N)c32)n1)[C@@H]1CCCN1C [II-13]	37	532	966	69
C[C@H](Oc1cc(OCC2(N(C)C)COC2)nc(-c2onc3c2CCC[C@@]32CCCc3sc(N)c(C#N)c32)n1)[C@@H]1CCCN1C [Example I-8]	11	1260	272	401
C[C@H](Oc1cc(Oc2nccs2)nc(-c2onc3c2CCC[C@@]32CCCc3sc(N)c(C#N)c32)n1)[C@@H]1CCCN1C [Example I-1]	11	1470	2500	24
C[C@H](Oc1cc(Oc2cncnc2)nc(-c2onc3c2CCC[C@@]32CCCc3sc(N)c(C#N)c32)n1)[C@@H]1CCCN1C [Example I-3]	5	2280	682	29
C[C@H](Oc1cc(Nc2cnccn2)nc(-c2noc3c2CCC[C@@]32CCCc3sc(N)c(C#N)c32)n1)[C@@H]1CCCN1C [II-14]	59	1420	3180	115
C[C@H](Oc1cc(NCC2COC2)nc(-c2noc3c2CCC[C@@]32CCCc3sc(N)c(C#N)c32)n1)[C@@H]1CCCN1C [II-11]	28	2130	2270	46
C[C@H](Oc1cc(N(C)C)nc(-c2noc3c2CCC[C@@]32CCCc3sc(N)c(C#N)c32)n1)[C@@H]1CCCN1C [II-10]	81	2420	1940	1200
C[C@H](Oc1cc(Nc2ccncn2)nc(-c2noc3c2CCC[C@@]32CCCc3sc(N)c(C#N)c32)n1)[C@@H]1CCCN1C [II-15]	59	847	3550	91

Other lines, results leading:

GI50 (KRAS G12D Ba/F3) [nM]	IC50 (NCI-H2122 cells) [nM]	IC50 (AsPC-1 cells) [nM]	IC50 (SK-CO-1 cells) [nM]	Structure (SMILES)
46	822	3010	133	C[C@H](Oc1cc(Nc2cccnn2)nc(-c2noc3c2CCC[C@@]32CCCc3sc(N)c(C#N)c32)n1)[C@@H]1CCCN1C [II-18]
43	–	–	–	C[C@H](Oc1cc(Nc2ccccn2)nc(-c2noc3c2CCC[C@@]32CCCc3sc(N)c(C#N)c32)n1)[C@@H]1CCCN1C [II-16]
304	4700	3580	900	C[C@H](Oc1cc(N(C)CCN(C)C)nc(-c2noc3c2CCC[C@@]32CCCc3sc(N)c(C#N)c32)n1)[C@@H]1CCCN1C [II-20]
5	1220	36	260	CO[C@@H]1C[C@@H]([C@H](C)Oc2cc(O[C@@H]3CNC3(C)C)nc(-c3noc4c3CCC[C@@]43CCCc4sc(N)c(C#N)c43)n2)N(C)C1 [II-30]
130	9740	443	2590	C[C@H]1CN(C)CCCN1c1cc(O[C@@H]2CNC2(C)C)nc(-c2noc3c2CCC[C@@]32CCCc3sc(N)c(C#N)c32)n1 [II-28]
22	731	430	139	C[C@H](Oc1cc(O[C@@H]2CNC[C@@H]2F)nc(-c2noc3c2CCC[C@@]32CCCc3sc(N)c(C#N)c32)n1)[C@@H]1CCCN1C [II-29]
6	1710	298	354	C[C@H](Oc1cc(OCC2(N(C)C)COC2)nc(-c2noc3c2CCC[C@@]32CCCc3sc(N)c(C#N)c32)n1)[C@@H]1CCCN1C [II-22]
91	1460	1420	933	C[C@H](Oc1cc(O[C@H]2CN(C)C(C)(C)C2)nc(-c2noc3c2CCC[C@@]32CCCc3sc(N)c(C#N)c32)n1)[C@@H]1CCCN1C [II-19]
22	2200	277	977	C[C@H](Oc1cc(OCC2(N(C)C)CC2)nc(-c2noc3c2CCC[C@@]32CCCc3sc(N)c(C#N)c32)n1)[C@@H]1CCCN1C [II-21]
3	1210	25	394	C[C@H](Oc1cc(O[C@@H]2CNC2(C)C)nc(-c2noc3c2CCC[C@@]32CCCc3sc(N)c(C#N)c32)n1)[C@@H]1C[C@@H](F)CN1C [II-31]
15	389	571	326	COc1c(OCC2(N(C)C)COC2)nc(-c2noc3c2CCC[C@@]32CCCc3sc(N)c(C#N)c32)nc1O[C@@H](C)[C@@H]1CCCN1C [II-25]
